Data reported in patent publication US8728508B2, “Hydrophilic coating and a method for the preparation thereof” (Coloplast A/S, priority 2002, dated 2014).
In brackets after ≈: the same amount, converted by molar mass. Where a name gives a salt, the structure may show the parent alone.

Experiments:
[1] = Vigorous finger rubbing under running water of UV cured coated polyurethane catheters (coating stable / lubricious); format: physicochemical
Method: The coating was applied to polyurethane catheters by dipping the catheters in the polymer solution at room temperature and withdrawing them at a speed of 21 mm/s. The catheters were dried for 30 minutes at 70° C. and then UV cured for 150 seconds at 40-50° C. The UV cured catheters were immediately rubbed vigorously between the fingers under running water in order to evaluate whether the coating was stable and lubricious. They were then stored in water for at least 72 hours, and vigorous finger rubbing under running water was repeated. The catheters were then scored “stable” and “lubricious” only if the coating was still stable and lubricious at this time.

[2] = Hansen solubility parameter, cited from earlier work; for Delta D: dispersion; for Delta H: hydrogen bonding; for Delta P: polar
[3] = cited from earlier work
[4] = 10% triethyl citrate, 79.0% solvent, 5% NMP, 6% PVP K-90, finger rubbing after at least 72 hours storage in water
[5] = 8.7% plasticiser, 5% PVP K-90, 82% ethanol, 4.35% NMP, polyurethane catheters, finger rubbing under running water after at least 72 hours storage in water

Coating stable? [1, 5] | SMILES | Coating stable? [1, 4] | Delta D [2] | Delta H [2] | Delta P [2] | Solubility in water (g/L) [3] | Solubility in water [3]
– | C1COCO1 [1,3-dioxolane] | stable | – | – | – | – | –
stable | CCOC(=O)CC(CC(=O)OCC)(OC(C)=O)C(=O)OCC [Acetyl triethyl citrate] | – | 16.6 | 8.6 | 3.5 | – | –
– | CS(C)(=O)=O [Dimethyl sulfone] | – | 19 | 12.3 | 19.4 | Miscible | –
– | CCO [Ethanol] | stable | – | – | – | – | –
stable | CC(=O)OCC(CO)OC(C)=O (stereo not shown) [Glycerol diacetate] | – | 16.4 | 14.2 | 8.9 | Miscible | –
stable | CC(=O)OCC(COC(C)=O)OC(C)=O [Glycerol triacetate] | – | 16.5 | 9.1 | 4.5 | – | 71 mg/mL
– | CC1=CC(=O)CC(C)(C)C1 [Isophorone] | – | 16.6 | 7.4 | 8.2 | – | –
– | COC(=O)c1ccccc1O [Methyl salicylate] | – | 16 | 12.3 | 8 | – | –
– | CC(=O)N1CCOCC1 [N-Acetyl morpholine] | – | 18.3 | 7.8 | 5.3 | Miscible | –
– | CC1COC(=O)O1 (stereo not shown) [Propylene carbonate] | – | 20 | 4.1 | 18 | – | 190 mg/mL (≈ 1860 mM)
– | c1ccc2ncccc2c1 [Quinoline] | – | 19.4 | 7.6 | 7 | – | –
stable | CCOC(=O)CC(O)(CC(=O)OCC)C(=O)OCC [Triethyl citrate] | – | – | – | – | – | –
– | CCOP(=O)(OCC)OCC [Triethyl phosphate] | – | 16.7 | 9.2 | 11.4 | – | –
– | CN(C)C=O [dimethyl formamide] | stable | – | – | – | – | –
not stable | OCC(O)CO [glycerol] | – | – | – | – | – | –
